According to ChEMBL document CHEMBL1201862, “PubChem BioAssay data set” (2004):
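Tested at 5 concentrations; 48 h exposure; 96-well plates; endpoints linearly interpolated, else capped at highest concentration. GI50 marks 50% less growth.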 Activity calls are given as the source filed them. No stated cut-off is given here; in the data, active = GI50 up to about 1.1 µM and inactive = higher.

Tests used:
Experiment in all cases: growth of human tumour cells (NCI), 48 h
[1] = tested on: HT-29
[2] = tested on: K562
[3] = tested on: DU-145
[4] = tested on: IGROV-1
[5] = tested on: MDA-MB-435
[6] = tested on: A498
[7] = tested on: MCF7
[8] = tested on: LOX IMVI
[9] = tested on: COLO 205
[10] = tested on: MDA-N
[11] = tested on: SNB-19
[12] = tested on: UACC-62
[13] = tested on: UACC-257
[14] = tested on: NCI-H460
[15] = tested on: PC-3
[16] = tested on: SF-539
[17] = tested on: 786-0
[18] = tested on: HL-60
[19] = tested on: RPMI-8226
[20] = tested on: SF-295

Measured: GI50

O=C1c2sccc2C(=O)c2c(CO)csc21
inactive: [1] 3.3 µM | [2] 7.01 µM | [3] 2.66 µM | [4] 4.03 µM | [5] 1.94 µM | [6] 13.7 µM | [7] 5.12 µM | [8] 2.88 µM | [9] 2.69 µM | [10] 1.72 µM | [11] 5.56 µM | [12] 2.52 µM | [13] 2.15 µM | [14] 2.25 µM | [15] 3.32 µM | [16] 3.65 µM | [17] 3.94 µM | [18] 1.29 µM | [19] 5.26 µM | [20] 2.69 µM

C=CCOC(=O)NC1C(OC(C)[C@@H](NC(=O)OCc2ccccc2)C(=O)OC(C)(C)C)OC(COC(C)=O)C(OC(C)=O)C1OC(C)=O (stereo not given in full)
inactive: [1] > 100 µM | [2] 72.9 µM | [3] > 100 µM | [4] > 100 µM | [5] 39.4 µM | [6] > 100 µM | [7] > 100 µM | [8] 86.7 µM | [9] > 100 µM | [10] > 100 µM | [11] > 100 µM | [12] > 100 µM | [13] > 100 µM | [14] > 100 µM | [15] 47 µM | [16] > 100 µM | [17] > 100 µM | [18] 69.5 µM | [19] 62.4 µM | [20] > 100 µM

CCOC(=O)C(C#N)C1=CC(=O)C(=O)c2ccc(OC)cc21 (stereo not given)
inactive: [1] 31.6 µM | [2] 36.6 µM | [3] 19.5 µM | [4] 19.9 µM | [5] 17.6 µM | [6] 21.8 µM | [7] 16.1 µM | [8] 21.1 µM | [9] 17 µM | [10] 5.83 µM | [11] 22.1 µM | [12] 15.2 µM | [13] 17 µM | [14] 24.2 µM | [15] 28.5 µM | [16] 18.4 µM | [17] 25.1 µM | [18] 38.3 µM | [19] > 100 µM | [20] 23.3 µM

COc1ccc(/C=C/C(=O)/C=C/c2ccc(OC)cc2)cc1
inactive: [1] 29.3 µM | [2] 31.6 µM | [3] > 100 µM | [4] 45.6 µM | [5] 14.6 µM | [6] > 100 µM | [7] 47.8 µM | [8] 40.4 µM | [9] 34.5 µM | [10] 19 µM | [11] > 100 µM | [12] > 100 µM | [13] 20 µM | [14] > 100 µM | [15] 69.3 µM | [16] 26.4 µM | [17] 46.5 µM | [18] 20 µM | [19] 5.01 µM | [20] > 100 µM
